Like-named read-outs stand apart in the source and are kept apart here.
What was measured:
Format in all cases: in vivo
[1] = system: pigweed (Amaranthus retroflexus); experiment: Test A pre-/postemergence: pigweed; conditions: for pest or weed control at 125 g/ha / pest or weed control at 500 g/ha: Amaranthus retroflexus, 240 h
Method in brief: (§1)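 Injury was scored visually on a 0 (no effect) to 100 (complete control) scale versus untreated controls roughly ten days after treatment in the greenhouse. Compounds, formulated in surfactant-containing non-phytotoxic solvent, went on as soil-directed preemergence spray or postemergence to one- to two-leaf plants 2–10 cm tall.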

corn (Zea mays) [2] = experiment: Test A pre-/postemergence: corn
Method in brief: as §1

[3] = system: winter wheat (Triticum aestivum); experiment: Test C pre-/postemergence: winter wheat
Method in brief: (§2)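 Preemergence on seeds in loam/sand, postemergence on 2–18 cm (1–4-leaf) plants in peat-based medium; compounds in non-phytotoxic solvent with surfactant. After 13–15 days in greenhouse, visual rating versus controls, 0 (no effect) to 100 (complete control).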

[4] = system: galium (catchweed bedstraw, Galium aparine); experiment: Test C pre-/postemergence: galium
Method in brief: as §2

corn (Zea mays) [5] = experiment: Test C pre-/postemergence: corn
Method in brief: as §2

[6] = system: foxtail, giant (giant foxtail, Setaria faberii); experiment: Test C pre-/postemergence: foxtail, giant
Method in brief: as §2

[7] = system: johnsongrass (Sorghum halepense); experiment: Test C pre-/postemergence: johnsongrass
Method in brief: as §2

[8] = system: morningglory (Ipomoea coccinea); experiment: Test C pre-/postemergence: morningglory
Method in brief: as §2

[9] = system: nutsedge, yellow (yellow nutsedge, Cyperus esculentus); experiment: Test C pre-/postemergence: nutsedge, yellow
Method in brief: as §2

soybean (Glycine max) = experiment: Test C pre-/postemergence: soybean
Method in brief: as §2

[10] = system: velvetleaf (Abutilon theophrasti); experiment: Test C pre-/postemergence: velvetleaf
Method in brief: as §2

[11] = system: chickweed (common chickweed, Stellaria media); experiment: Test C postemergence: chickweed
Method in brief: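 Greenhouse pot test; foliar postemergence treatment at 1- to 4-leaf stage. Rated visually at 13 to 15 days on a 0–100 control scale relative to untreated plants.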

[12] = Postemergence, 31 g ai/ha, scale 0 to 100 (0 no effect, 100 complete control)
[13] = Postemergence, 62 g ai/ha, scale 0 to 100 (0 no effect, 100 complete control)
[14] = Postemergence, 125 g ai/ha, scale 0 to 100, 0 no effect, 100 complete control
[15] = Postemergence, 250 g ai/ha, scale 0 to 100
[16] = Preemergence, 31 g ai/ha, scale of 0 to 100, 0 is no effect, 100 is complete control
[17] = Preemergence, 62 g ai/ha, scale of 0 to 100, 0 is no effect, 100 is complete control
[18] = Preemergence, 125 g ai/ha, scale 0 to 100, 0 no effect, 100 complete control
[19] = Preemergence, 250 g ai/ha, scale 0 to 100, 0 no effect, 100 complete control
[20] = 31 g ai/ha, scale 0 to 100 (0 no effect, 100 complete control)
[21] = 62 g ai/ha, scale 0 to 100 (0 no effect, 100 complete control)
[22] = 125 g ai/ha, scale 0 to 100, 0 no effect, 100 complete control
[23] = Postemergence, 125 g ai/ha, 0 to 100 scale, 0 is no effect, 100 is complete control
[24] = Postemergence, 500 g ai/ha, visual rating on 0 to 100 scale (0 no effect, 100 complete control), approximately ten days
[25] = Preemergence, 125 g ai/ha, 0 to 100 scale where 0 is no effect and 100 is complete control
[26] = Preemergence, 500 g ai/ha, 0 to 100 scale (0 no effect, 100 complete control)

Cc1nn(-c2ccc(F)cc2)nc1Oc1ccnc(C(F)(F)F)c1 [Compound 129, 4-[[2-(4-fluorophenyl)-5-methyl-2H-1,2,3-triazol-4-yl]oxy]-2-(trifluoromethyl)pyridine]
85: Plant response rating, Galium [4, 13] | Plant response rating, Galium [4, 16] | Plant response rating, Johnsongrass [7, 18]
75: Plant response rating, Johnsongrass [7, 17] | Plant response rating, Morningglory [8, 15] | Plant response rating, Soybean (soybean (Glycine max); [15])
100%: pest or weed control at 125 g/ha ([1]; post-emergence, Postemergence, 125 g ai/ha, 0 to 100 scale, 0 is no effect, 100 is complete control, read-out: Pigweed plant response rating) | pest or weed control at 500 g/ha ([1]; post-emergence, Postemergence, 500 g ai/ha, visual rating on 0 to 100 scale (0 no effect, 100 complete control), approximately ten days, read-out: Pigweed plant response rating) | pest or weed control at 125 g/ha ([1]; pre-emergence, Preemergence, 125 g ai/ha, 0 to 100 scale where 0 is no effect and 100 is complete control, read-out: Plant response rating, Pigweed) | pest or weed control at 500 g/ha ([1]; pre-emergence, Preemergence, 500 g ai/ha, 0 to 100 scale (0 no effect, 100 complete control), read-out: Plant response rating, Pigweed)
30%: plant injury at 125 g/ha (corn (Zea mays) [2]; Zea mays, post-emergence, 240 h, Postemergence, 125 g ai/ha, 0 to 100 scale, 0 is no effect, 100 is complete control, read-out: Corn plant response rating)
20: Plant response rating, Wheat [3, 12] | Plant response rating, Wheat [3, 17] | Plant response rating, Foxtail, Giant [6, 13] | Plant response rating, Morningglory [8, 17] | Plant response rating, Soybean (soybean (Glycine max); [12])
50: Plant response rating, Morningglory [8, 12]
5: Plant response rating, Johnsongrass [7, 12] | Plant response rating, Nutsedge, Yellow [9, 19]
60: Plant response rating, Wheat [3, 19] | Plant response rating, Galium [4, 12] | Plant response rating, Morningglory [8, 18]
25: Plant response rating, Wheat [3, 13] | Plant response rating, Johnsongrass [7, 16]
15: Plant response rating, Corn (corn (Zea mays) [5]; [13]) | Plant response rating, Johnsongrass [7, 13] | Plant response rating, Johnsongrass [7, 14] | Plant response rating, Chickweed [11, 20]
90: Plant response rating, Galium [4, 14] | Plant response rating, Galium [4, 15]
80: Plant response rating, Velvetleaf [10, 14] | Plant response rating, Chickweed [11, 22]
55: Plant response rating, Morningglory [8, 13]
40%: plant injury at 500 g/ha (corn (Zea mays) [2]; Zea mays, post-emergence, 240 h, Postemergence, 500 g ai/ha, visual rating on 0 to 100 scale (0 no effect, 100 complete control), approximately ten days, read-out: Corn plant response rating)
98: Plant response rating, Foxtail, Giant [6, 17] | Plant response rating, Foxtail, Giant [6, 18] | Plant response rating, Foxtail, Giant [6, 19] | Plant response rating, Chickweed ([11]; 250 g ai/ha, scale 0 to 100)
70: Plant response rating, Johnsongrass [7, 15] | Plant response rating, Soybean (soybean (Glycine max); [14])
45: Plant response rating, Corn (corn (Zea mays) [5]; [18]) | Plant response rating, Velvetleaf [10, 12] | Plant response rating, Velvetleaf [10, 13] | Plant response rating, Velvetleaf [10, 18] | Plant response rating, Chickweed [11, 21]
95: Plant response rating, Foxtail, Giant [6, 16] | Plant response rating, Johnsongrass [7, 19] | Plant response rating, Velvetleaf [10, 19]
50%: Corn plant response rating (crop injury, 0 = no effect, 100 = complete kill) at 125 g/ha (corn (Zea mays) [2]; Zea mays, pre-emergence, 240 h, Preemergence, 125 g ai/ha, 0 to 100 scale where 0 is no effect and 100 is complete control)
30: Plant response rating, Wheat [3, 14] | Plant response rating, Wheat [3, 18] | Plant response rating, Foxtail, Giant [6, 14]
0: Plant response rating, Wheat [3, 16] | Plant response rating, Corn (corn (Zea mays) [5]; [16]) | Plant response rating, Foxtail, Giant [6, 12] | Plant response rating, Morningglory [8, 16] | Plant response rating, Nutsedge, Yellow [9, 12] | Plant response rating, Nutsedge, Yellow [9, 13] | Plant response rating, Nutsedge, Yellow [9, 14] | Plant response rating, Nutsedge, Yellow [9, 15] | Plant response rating, Nutsedge, Yellow [9, 16] | Plant response rating, Nutsedge, Yellow [9, 17] | Plant response rating, Nutsedge, Yellow [9, 18] | Plant response rating, Soybean (soybean (Glycine max); [16]) | Plant response rating, Soybean (soybean (Glycine max); [17]) | Plant response rating, Velvetleaf [10, 16]
40: Plant response rating, Wheat [3, 15] | Plant response rating, Corn (corn (Zea mays) [5]; [14]) | Plant response rating, Soybean (soybean (Glycine max); [13]) | Plant response rating, Soybean (soybean (Glycine max); [19])
100: Plant response rating, Galium [4, 17] | Plant response rating, Galium [4, 18] | Plant response rating, Galium [4, 19] | Plant response rating, Velvetleaf [10, 15]
10: Plant response rating, Corn (corn (Zea mays) [5]; [12]) | Plant response rating, Corn (corn (Zea mays) [5]; Preemergence, 62 g ai/ha, scale 0 to 100, 0 no effect, 100 complete control) | Plant response rating, Soybean (soybean (Glycine max); [18]) | Plant response rating, Velvetleaf [10, 17]
65: Plant response rating, Corn (corn (Zea mays) [5]; [15]) | Plant response rating, Corn (corn (Zea mays) [5]; [19]) | Plant response rating, Foxtail, Giant [6, 15] | Plant response rating, Morningglory [8, 14] | Plant response rating, Morningglory [8, 19]
60%: Corn plant response rating (crop injury, 0 = no effect, 100 = complete kill) at 500 g/ha (corn (Zea mays) [2]; Zea mays, pre-emergence, 240 h, Preemergence, 500 g ai/ha, 0 to 100 scale (0 no effect, 100 complete control))

Fc1ccc(-n2nc(Cc3ccnc(C(F)(F)F)c3)c(OCC(F)(F)F)n2)cc1 [Compound 142]
100: Plant response rating, Pigweed [1, 23] | Pigweed plant response rating [1, 24] | Plant response rating, Pigweed [1, 25] | Plant response rating, Pigweed [1, 26] | Plant response rating, Galium [4, 18] | Plant response rating, Galium [4, 19] | Plant response rating, Foxtail, Giant [6, 16] | Plant response rating, Foxtail, Giant [6, 17] | Plant response rating, Foxtail, Giant [6, 18] | Plant response rating, Foxtail, Giant [6, 19] | Plant response rating, Johnsongrass [7, 18] | Plant response rating, Johnsongrass [7, 19] | Plant response rating, Velvetleaf [10, 19]
60: Plant response rating, Galium [4, 16] | Plant response rating, Morningglory [8, 12] | Plant response rating, Morningglory [8, 14]
40: Plant response rating, Wheat [3, 14]
15: Plant response rating, Wheat [3, 12] | Plant response rating, Nutsedge, Yellow [9, 14]
90: Plant response rating, Galium [4, 14] | Plant response rating, Galium [4, 15] | Plant response rating, Foxtail, Giant [6, 15] | Plant response rating, Johnsongrass [7, 16]
50: Corn plant response rating (corn (Zea mays) [2]; [23]) | Plant response rating, Wheat [3, 19] | Plant response rating, Soybean (soybean (Glycine max); [12]) | Plant response rating, Velvetleaf [10, 13]
35: Plant response rating, Wheat [3, 18] | Plant response rating, Corn (corn (Zea mays) [5]; [13]) | Plant response rating, Corn (corn (Zea mays) [5]; [14]) | Plant response rating, Morningglory [8, 17] | Plant response rating, Velvetleaf [10, 16]
25: Plant response rating, Wheat [3, 13]
45: Plant response rating, Wheat [3, 15] | Plant response rating, Corn (corn (Zea mays) [5]; [15])
98: Plant response rating, Johnsongrass [7, 17] | Plant response rating, Chickweed [11, 21] | Plant response rating, Chickweed [11, 22] | Plant response rating, Chickweed ([11]; 250 g ai/ha, scale 0 to 100)
75: Plant response rating, Foxtail, Giant [6, 13] | Plant response rating, Velvetleaf [10, 15] | Plant response rating, Velvetleaf [10, 17]
30: Plant response rating, Corn (corn (Zea mays) [2]; [25]) | Plant response rating, Corn (corn (Zea mays) [5]; [12]) | Plant response rating, Corn (corn (Zea mays) [5]; [19]) | Plant response rating, Velvetleaf [10, 12]
20: Plant response rating, Corn (corn (Zea mays) [5]; [18]) | Plant response rating, Foxtail, Giant [6, 12] | Plant response rating, Nutsedge, Yellow [9, 15] | Plant response rating, Soybean (soybean (Glycine max); [19])
0: Plant response rating, Corn (corn (Zea mays) [5]; [16]) | Plant response rating, Nutsedge, Yellow [9, 16] | Plant response rating, Nutsedge, Yellow [9, 18] | Plant response rating, Nutsedge, Yellow [9, 19] | Plant response rating, Soybean (soybean (Glycine max); [16])
85: Plant response rating, Chickweed [11, 20]
70: Plant response rating, Johnsongrass [7, 13]
80: Corn plant response rating (corn (Zea mays) [2]; [24]) | Plant response rating, Corn (corn (Zea mays) [2]; [26]) | Plant response rating, Galium [4, 12] | Plant response rating, Galium [4, 13] | Plant response rating, Galium [4, 17] | Plant response rating, Foxtail, Giant [6, 14] | Plant response rating, Johnsongrass [7, 14] | Plant response rating, Johnsongrass [7, 15] | Plant response rating, Morningglory [8, 15] | Plant response rating, Velvetleaf [10, 18]
5: Plant response rating, Wheat [3, 17] | Plant response rating, Corn (corn (Zea mays) [5]; [17]) | Plant response rating, Nutsedge, Yellow [9, 12] | Plant response rating, Nutsedge, Yellow [9, 13] | Plant response rating, Soybean (soybean (Glycine max); [17]) | Plant response rating, Soybean (soybean (Glycine max); [18])
55: Plant response rating, Johnsongrass [7, 12] | Plant response rating, Soybean (soybean (Glycine max); [13]) | Plant response rating, Soybean (soybean (Glycine max); [14]) | Plant response rating, Soybean (soybean (Glycine max); [15]) | Plant response rating, Velvetleaf [10, 14]

Reference: patent US9302999B2, “Substituted triazoles as herbicides” (E. I. DU PONT DE NEMOURS AND COMPANY, priority 2012, dated 2016)
